Results reported in patent publication US3997530A, “Substituted enaminoketones” (American Cyanamid Company, priority 1976, dated 1976).
Several values for one entry are separate records, joined by “and”; a condition that tells them apart may be missing. Equal values may be shown once. Values belong to the molecule of their own block, whether it stands above or below them.

Legend:
[1] = "writhing syndrome" test for analgesic activity (phenyl-p-quinone); type: in vivo, male Swiss albino mice; settings: 100 mg./kg. oral, 30 minutes before phenyl-p-quinone; 3 minute count commencing 15 minutes after; control approximately 30 per pair; active if 18 or less
Excerpt: The substituted enaminoketones of the present invention are active analgesics when measured by the "writhing syndrome" test for analgesic activity as described by Siegmund, et al., Proc. Soc. Exp. Bio. and Med., 95, 729 (1957), with modifications. This method is based upon the reduction of the number of writhes following the intraperitoneal injection of one mg./kg. of body weight of phenyl-p-quinone in male Swiss albino mice weighing 18-25 gm. The syndrome is characterized by intermittent contractions of the abdomen, twisting and turning of the trunk, and extension of the hind legs beginning 3 to 5 minutes after injection of the phenyl-p-quinone. The test compounds are administered orally at the indicated dose to groups of 2 mice each, 30 minutes before injection of the phenyl-p-quinone. […] A compound is considered active if it reduces the total number of writhes in 2 test mice from a control value of approximately 30 pair to a value of 18 or less. Table I summarized the results of this test on representative compounds of this invention.

[2] = Water solubility of salts; type: physicochemical
[3] = Walking gait test in rats with yeast-inflamed paw (modified Atkinson and Cowan); type: in vivo, male, albino Wistar strain rats; settings: oral by gavage, dose producing 50% reversal of the pre-dose gait score, one and/or two hours post-drug
Procedure: Atkinson and A. Cowan, J. Pharm. Pharmac, 26, 727 (1974).
In this test male, albino Wistar strain rats from Royalhart farms, weighing 120-150 g. are deprived of food for about 20 hours. A 40% suspension of brewers' yeast in physiological saline is injected, at a concentration of 0.25 ml/rat into the plantar surface of the left hind paw of each rat. 3 hours later, at which time an inflammation of the injected paw has developed, a pre-drug assessment of walking gait is made for each rat according to the following scoring system:
0 = Normal gait in the presence of a severely inflammed paw. There is continuous use of the foot pad.
0.5 = As above with intermittent mild limping.
1.0 = Constant limping, but continuous use of the foot pad.
1.5 = Limping with occasional three-legged gait (paw kept off walking surface) or intermittent use of digits in combination with foot pad.
2.0 = Continuous three-legged gait and/or only the tips of the digits touch the walking surface. There is no use of foot pad.
Compounds, in a suitable vehicle, are administered orally by gavage in a volume of 0.5 ml./100 g. of body weight. One and/or two hours later a post-drug assessment of walking gait is made as described above. The criterion of an analgesic response for each rat is a 50% reversal of the abnormal gait score (post-drug) from the pre-drug score. […]

[4] = Antipyretic activity, brewers' yeast-induced hyperthermia (modified Teotino et al.); type: in vivo, rats
Procedure: The compounds of this invention also show antipyretic activity by their ability to reduce a hyperthermic response in warm-blooded animals, e.g., rats, induced by the subcutaneous injection of a suspension of brewers' yeast. This is a modification of the method described by Teotino, et al., J. Med. Chem. 6, 248 (1963). A 40% suspension of brewer's yeast in distilled water is administered to groups of five to ten rats subcutaneously (1.0 ml./100 g. of body weight). Eighteen hours later, rectal temperatures are recorded and compounds, control vehicle (2% starch suspension) or aspirin is administered. Rectal temperatures are recorded 4 hours later and the results are compared with the starch treated controls and with aspirin, a reference antipyretic agent.

[5] = Brewer's Yeast Pressure Pain Test (modified Randall and Selitto); type: in vivo, rats
Procedure: To determine analgesic activity, a modification of the method of Randall and Selitto [Arch. int. Pharmacodyn., 111, 409 (1957)] is used. This test measures the pain threshold of rats whose paws are made sensitive to pressure by the injection of a 20% aqueous suspension (0.1 ml.) of brewers' yeast into the plantar surface of the left hind paw. Constantly increasing force (16 grams/second) is applied to the swollen paw using an Analgesy Meter, Ugo Basile. The pressure is cut off at 250 grams of force when there is no response (sudden struggle or vocalization). Control rats treated with the starch vehicle response to a pressure or force of about 30 grams. Pressure-pain thresholds are always recorded 2 hours after brewers' yeast. Analgesic agents are administered at the same time as the yeast, at a dose of 200 mg./kg. orally. Ratios of treated (T)/control (C) reaction thresholds are calculated as estimates of analgesic efficacy (degree of analgesia attainable). Potency is regarded as the dose necessary to produce a given level of analgesia (i.e. 100% elevation of pain threshold is T/C=2.0).

SMILES: NC(=CC(=O)c1cnccn1)C1CC1 [1-amino-1-cyclopropyl-3-(2-pyrazinyl)-1-propen-3-one]
No. of writhes per pair [1]: 3.8

SMILES: c1cncc(-c2cc(C3CC3)no2)c1 [3-(3-cyclopropyl-5-isoxazolyl)pyridine]
water solubility ([2]; sulfate salt): water soluble

SMILES: NC(=CC(=O)c1cccnc1)C1CC1 [3-amino-3-cyclopropyl-1-(3-pyridyl)-2-propen-1-one]
ED50 ([3]; Rattus norvegicus, po, 2 h, read-out: ED50): 27 mg/kg
ED50 [3]: 40 mg/kg and 26 mg/kg

SMILES: NC(=CC(=O)c1ccncc1)C1CC1 [3-amino-3-cyclopropyl-1-(4-pyridyl)-2-propen-1-one]
No. of writhes per pair [1]: 9.4
effect on body temperature of normal rats ([4]; 200 mg./kg., normal rats): not effecting the body temperature of normal rats
lowering the yeast-elevated body temperature of rats ([4]; 200 mg./kg., rectal temperature 4 hours later, yeast-treated rats): effective in lowering the yeast-elevated body temperature of rats
Ratio (Treated/Control) Measured at 2 Hours Following 200 mg./kg. Oral Dose ([5]; 200 mg./kg. orally, 2 hours after brewers' yeast, ratio of reaction thresholds T/C): 1.45 and 1.39
ED50 ([5]; Rattus norvegicus, 2 h, oral, Brewer's Yeast Pressure Pain Test): 25 mg/kg

SMILES: CC(=O)Oc1ccccc1C(=O)O [Aspirin, reference compound]
effect on temperature of normal rats ([4]; aspirin reference, dose not given, normal rats): not effecting the temperature of normal rats
lowering yeast-elevated temperatures ([4]; aspirin reference, dose not given, yeast-treated rats): similarly effective in lowering yeast-elevated temperatures

Next, values leading:

solubility ([2]; acetate salt): slightly soluble
SMILES: c1cncc(-c2cc(C3CC3)on2)c1 [3-(5-cyclopropyl-3-isoxazolyl)pyridine]

water solubility ([2]; phosphate salt): water soluble
SMILES: c1cc(-c2cc(C3CC3)no2)ccn1 [4-(3-cyclopropyl-5-isoxazolyl)pyridine]

water solubility ([2]; citrate salt): slightly water soluble
SMILES: c1cc(-c2cc(C3CC3)on2)ccn1 [4-(5-cyclopropyl-3-isoxazolyl)pyridine]
